# ChEMBL document CHEMBL3390836, “Mannich- and LedererManasse-based analogues of the natural product S-(+)-curcuphenol as cancer proliferation and migration inhibitors” (Medchemcomm, 2012)
# Assays:
# Assay type in all cases: functional
# HCC 2998 = assay: Cytotoxicity against human HCC2998 cells assessed as cell growth at 10^-7 M after 48 hrs by SRB assay relative to control; conditions: HCC 2998, 48 h, read-out: Activity
# K562 = assay: Cytotoxicity against human K562 cells assessed as cell growth at 10^-7 M after 48 hrs by SRB assay relative to control; conditions: K562, 48 h, read-out: Activity
# MCF7 = assay: Cytotoxicity against human MCF7 cells after 48 hrs by SRB assay; conditions: MCF7, 48 h; for CC50: read-out: LC50 (the source's name)
# KM12 = assay: Cytotoxicity against human KM12 cells after 48 hrs by SRB assay; conditions: KM12, 48 h; for CC50: read-out: LC50 (the source's name)
# SW-620 = assay: Cytotoxicity against human SW620 cells assessed as cell growth at 10^-7 M after 48 hrs by SRB assay relative to control; conditions: SW-620, 48 h, read-out: Activity
# [1] = Cytotoxicity against human SKOV3 cells assessed as cell growth at 10^-6 M after 48 hrs by SRB assay relative to control; conditions: SK-OV-3, 48 h, read-out: Activity
# [2] = Cytotoxicity against human OVCAR4 cells assessed as cell growth at 10^-6 M after 48 hrs by SRB assay relative to control; conditions: OVCAR-4, 48 h, read-out: Activity
# SF-268 [3] = assay: Cytotoxicity against human SF268 cells assessed as cell growth at 10^-6 M after 48 hrs by SRB assay relative to control; conditions: SF-268, 48 h, read-out: Activity
# MDA-MB-435 = assay: Cytotoxicity against human MDA-MB-435 cells assessed as cell growth at 10^-7 M after 48 hrs by SRB assay relative to control; conditions: MDA-MB-435, 48 h, read-out: Activity
# Malme-3M [4] = assay: Cytotoxicity against human MALME-3M cells assessed as cell growth at 10^-7 M after 48 hrs by SRB assay relative to control; conditions: read-out: Activity
# CAKI-1 [5] = assay: Cytotoxicity against human Caki1 cells assessed as cell growth at 10^-6 M after 48 hrs by SRB assay relative to control; conditions: CAKI-1, 48 h, read-out: Activity
# [6] = Cytotoxicity against human OVCAR8 cells assessed as cell growth at 10^-6 M after 48 hrs by SRB assay relative to control; conditions: OVCAR-8, 48 h, read-out: Activity
# MDA-MB-468 = assay: Cytotoxicity against human MDA-MB-468 cells assessed as cell growth at 10^-6 M after 48 hrs by SRB assay relative to control; conditions: MDA-MB-468, 48 h, read-out: Activity
# [7] = Cytotoxicity against human UACC62 cells assessed as cell growth at 10^-6 M after 48 hrs by SRB assay relative to control; conditions: UACC-62, 48 h, read-out: Activity
# CAKI-1 [8] = assay: Cytotoxicity against human Caki1 cells after 48 hrs by SRB assay; conditions: CAKI-1, 48 h; for CC50: read-out: LC50 (the source's name)
# MDA-MB-231 = assay: Cytotoxicity against human MDA-MB-231 cells assessed as cell growth at 10^-4 M after 48 hrs by SRB assay relative to control; conditions: MDA-MB-231, 48 h, read-out: Activity
# SNB-19 [9] = assay: Cytotoxicity against human SNB19 cells assessed as cell growth at 10^-6 M after 48 hrs by SRB assay relative to control; conditions: SNB-19, 48 h, read-out: Activity
# SF-539 = assay: Cytotoxicity against human SF539 cells assessed as cell growth at 10^-6 M after 48 hrs by SRB assay relative to control; conditions: SF-539, 48 h, read-out: Activity
# [10] = Cytotoxicity against human OVCAR5 cells assessed as cell growth at 10^-8 M after 48 hrs by SRB assay relative to control; conditions: OVCAR-5, 48 h, read-out: Activity
# SK-MEL-28 = assay: Cytotoxicity against human SK-MEL-28 cells after 48 hrs by SRB assay; conditions: SK-MEL-28, 48 h; for CC50: read-out: LC50 (the source's name)
# [11] = Cytotoxicity against human HCT116 cells assessed as cell growth at 10^-7 M after 48 hrs by SRB assay relative to control; conditions: HCT-116, 48 h, read-out: Activity
# [12] = Cytotoxicity against human HCT116 cells assessed as cell growth at 10^-8 M after 48 hrs by SRB assay relative to control; conditions: HCT-116, 48 h, read-out: Activity
# SF-295 = assay: Cytotoxicity against human SF295 cells assessed as cell growth at 10^-7 M after 48 hrs by SRB assay relative to control; conditions: SF-295, 48 h, read-out: Activity
# SF-268 [13] = assay: Cytotoxicity against human SF268 cells assessed as cell growth at 10^-4 M after 48 hrs by SRB assay relative to control; conditions: SF-268, 48 h, read-out: Activity
# Malme-3M [14] = assay: Cytotoxicity against human MALME-3M cells assessed as cell growth at 10^-6 M after 48 hrs by SRB assay relative to control; conditions: read-out: Activity
# SN12C = assay: Cytotoxicity against human SN12C cells assessed as cell growth at 10^-8 M after 48 hrs by SRB assay relative to control; conditions: read-out: Activity
# [15] = Cytotoxicity against human OVCAR8 cells assessed as cell growth at 10^-4 M after 48 hrs by SRB assay relative to control; conditions: OVCAR-8, 48 h, read-out: Activity
# MOLT-4 = assay: Cytotoxicity against human MOLT4 cells assessed as cell growth at 10^-6 M after 48 hrs by SRB assay relative to control; conditions: MOLT-4, 48 h, read-out: Activity
# [16] = Cytotoxicity against human HCT116 cells assessed as cell growth at 10^-6 M after 48 hrs by SRB assay relative to control; conditions: HCT-116, 48 h, read-out: Activity
# IGROV-1 = assay: Cytotoxicity against human IGROV1 cells assessed as cell growth at 10^-8 M after 48 hrs by SRB assay relative to control; conditions: IGROV-1, 48 h, read-out: Activity
# T47D = assay: Cytotoxicity against human T47D cells after 48 hrs by SRB assay
# [17] = Cytotoxicity against human OVCAR5 cells assessed as cell growth at 10^-6 M after 48 hrs by SRB assay relative to control; conditions: OVCAR-5, 48 h, read-out: Activity
# NCI-H322M = assay: Cytotoxicity against human NCI-H322M cells assessed as cell growth at 10^-4 M after 48 hrs by SRB assay relative to control; conditions: read-out: Activity
# SNB-19 [18] = assay: Cytotoxicity against human SNB19 cells after 48 hrs by SRB assay; conditions: SNB-19, 48 h; for CC50: read-out: LC50 (the source's name)
# [19] = Cytotoxicity against human OVCAR3 cells assessed as cell growth at 10^-8 M after 48 hrs by SRB assay relative to control; conditions: OVCAR-3, 48 h, read-out: Activity
# HOP-62 = assay: Cytotoxicity against human HOP62 cells assessed as cell growth at 10^-7 M after 48 hrs by SRB assay relative to control; conditions: HOP-62, 48 h, read-out: Activity
smiles,measurement,setting,value
CC(C)=CCC[C@H](C)c1ccc(C)c2c1OCN(CC1CCNCC1)C2,growth at 0.1 µM,HCC 2998,105%
same,growth at 0.1 µM,K562,99%
same,GI50,MCF7,6.15 µM
same,TGI,MCF7,18.7 µM
same,CC50,MCF7,45.2 µM
same,GI50,KM12,12.3 µM
same,TGI,KM12,26 µM
same,CC50,KM12,55 µM
same,growth at 0.1 µM,SW-620,100%
same,growth at 1 µM,[1],100%
same,growth at 1 µM,[2],101%
same,growth at 1 µM,SF-268 [3],102%
same,growth at 0.1 µM,MDA-MB-435,96%
same,growth at 0.1 µM,Malme-3M [4],94%
same,growth at 1 µM,CAKI-1 [5],98%
same,growth at 1 µM,[6],100%
same,growth at 1 µM,MDA-MB-468,99%
same,growth at 1 µM,[7],101%
same,GI50,CAKI-1 [8],17.7 µM
same,TGI,CAKI-1 [8],36.8 µM
same,CC50,CAKI-1 [8],76.3 µM
same,growth at 100 µM,MDA-MB-231,-77%
same,growth at 1 µM,SNB-19 [9],94%
same,growth at 1 µM,SF-539,104%
same,growth at 0.01 µM,[10],88%
same,GI50,SK-MEL-28,15.7 µM
same,TGI,SK-MEL-28,28.3 µM
same,CC50,SK-MEL-28,54.8 µM
same,growth at 0.1 µM,[11],100%
same,growth at 0.01 µM,[12],100%
same,growth at 0.1 µM,SF-295,94%
same,growth at 100 µM,SF-268 [13],-79%
same,growth at 1 µM,Malme-3M [14],95%
same,growth at 0.01 µM,SN12C,97%
same,growth at 100 µM,[15],-85%
same,growth at 1 µM,MOLT-4,100%
same,growth at 1 µM,[16],104%
same,growth at 0.01 µM,IGROV-1,101%
same,GI50,T47D,15.2 µM
same,LC50 (concentration killing 50% of cells),T47D,72.8 µM
same,TGI,T47D,33.2 µM
same,growth at 1 µM,[17],85%
same,growth at 100 µM,NCI-H322M,-68%
same,GI50,SNB-19 [18],14 µM
same,TGI,SNB-19 [18],29.4 µM
same,CC50,SNB-19 [18],61.8 µM
same,growth at 0.01 µM,[19],99%
same,growth at 0.1 µM,HOP-62,94%
CC(C)=CCC[C@H](C)c1ccc(C)c(CNCC2CCNCC2)c1O,growth at 0.1 µM,HCC 2998,95%
same,growth at 0.1 µM,K562,99%
same,GI50,MCF7,4.5 µM
same,TGI,MCF7,8.34 µM
same,CC50,MCF7,15.5 µM
same,GI50,KM12,4.12 µM
same,TGI,KM12,8.38 µM
same,CC50,KM12,17.1 µM
same,growth at 0.1 µM,SW-620,95%
same,growth at 1 µM,[1],104%
same,growth at 1 µM,[2],101%
same,growth at 1 µM,SF-268 [3],92%
same,growth at 0.1 µM,MDA-MB-435,92%
same,growth at 0.1 µM,Malme-3M [4],89%
same,growth at 1 µM,CAKI-1 [5],89%
same,growth at 1 µM,[6],100%
same,growth at 1 µM,MDA-MB-468,90%
same,growth at 1 µM,[7],86%
same,GI50,CAKI-1 [8],4.62 µM
same,TGI,CAKI-1 [8],13.4 µM
same,CC50,CAKI-1 [8],> 25 µM
same,growth at 100 µM,MDA-MB-231,-65%
same,growth at 1 µM,SNB-19 [9],93%
same,growth at 1 µM,SF-539,92%
same,growth at 0.01 µM,[10],96%
same,GI50,SK-MEL-28,4.2 µM
same,TGI,SK-MEL-28,7.89 µM
same,CC50,SK-MEL-28,14.8 µM
same,growth at 0.1 µM,[11],98%
same,growth at 0.01 µM,[12],100%
same,growth at 0.1 µM,SF-295,91%
same,growth at 100 µM,SF-268 [13],14%
same,growth at 1 µM,Malme-3M [14],84%
same,growth at 0.01 µM,SN12C,92%
same,growth at 100 µM,[15],-60%
same,growth at 1 µM,MOLT-4,99%
same,growth at 1 µM,[16],105%
same,growth at 0.01 µM,IGROV-1,102%
same,GI50,T47D,4.33 µM
same,LC50 (concentration killing 50% of cells),T47D,18.1 µM
same,TGI,T47D,8.86 µM
same,growth at 1 µM,[17],90%
same,growth at 100 µM,NCI-H322M,13%
same,GI50,SNB-19 [18],3.99 µM
same,TGI,SNB-19 [18],> 25 µM
same,CC50,SNB-19 [18],> 25 µM
same,growth at 0.01 µM,[19],105%
same,growth at 0.1 µM,HOP-62,95%
